Laboratory results as given in patent publication US7842703B2, “Substituted benzofused derivatives and their use as vanilloid receptor ligands” (Glenmark Pharmaceuticals S.A., priority 2005, dated 2010).

Target: T1, Human TRPV1 expressing CHO cells (Homo sapiens, UniProt Q8NER1)
T1 construct: expressed in transfected cells; host or cells: CHO cells under G-418 selection
Assay: Screening for TRPV1 antagonist using the 45Calcium uptake assay (inhibition of capsaicin induced cellular uptake of radioactive calcium)
Assay type: cell-based
Conditions: for inhibition at 1 µM: CHO, test compound 1 μM, capsaicin 250 nM, relative to maximum ^45Ca uptake induced by capsaicin alone; for IC50: inhibition of capsaicin (250 nM) induced ^45Ca uptake
Procedure: The inhibition of TRPV1 receptor activation was followed as inhibition of capsaicin induced cellular uptake of radioactive calcium which represents calcium influx exclusively through the plasma membrane associated TRPV1 receptor.
Stock solution of capsaicin was made in ethanol and test compounds in 100% DMSO. Stock solutions were diluted to appropriate final concentrations in assay buffer keeping the final DMSO concentration between 0.1% and 0.55%.
^45Ca was used at a final concentration of 2.5 μCi/ml (^45Ca, ICN).
Assay buffer was composed of F-12 DMEM medium supplemented with 1.8 mM CaCl2 (final conc.) and 0.1% Bovine serum albumin. (BSA from SIGMA)
Wash buffer was tyrodes solution supplemented with 0.1% BSA and 1.8 mM calcium. Lysis buffer contained 50 mM Tris-HCl, pH7.5, 150 mM NaCl, 1% Triton X-100, 0.5% deoxycholate and 0.1% Sodium dodicyl sulphate (SDS, SIGMA)
Assay was carried out with some modifications the of procedure as described by Toth et. al. (See Toth A et. al., Life Sciences 73 p 487-498, 2003). Human TRPV1 expressing CHO cells were grown in F-12 DMEM (Dulbecco's modified Eagle's medium—GIBCO) medium with 10% FBS (fetal bovine serum Hyclone), 1% penicillin-streptomycin solution, 400 μg/ml of G-418. Cells were seeded 48 h prior to the assay in 96 well plates so as to get ˜50,000 cells per well on the day of experiment. Plates were incubated at 37° C. in the presence of 5% CO2. Cells were then washed twice with 200 μl of assay buffer and re-suspended in 144 μl of the same. Assay was carried out at 30° C. in total volume of 200 μl. Test compounds were added to the cells fifteen minutes before addition of capsaicin, Final concentration of capsaicin in the assay was 250 nM. After 5 minutes of agonist treatment, drug was washed out and wells rinsed with 300 μl of ice cold wash buffer 3×. The cells were lysed in 50 μl lysis buffer for 20 min. 40 μl of cell lysate was mixed with 150 μl of Microscint PS, left overnight for equilibration. Radioactivity in samples was measured as counts per minute (cpm) using Packard Biosciences Top Count. The drug/vehicle/capsaicin treated ^45Ca uptake values were normalized over basal ^45Ca value. Data was expressed as % inhibition of ^45Ca uptake by test compound with respect to maximum ^45Ca uptake induced by capsaicin alone. IC50 value was calculated from dose response curve by nonlinear regression analysis using GraphPadPRISM software.

T1 sequence (Q8NER1 whole entry): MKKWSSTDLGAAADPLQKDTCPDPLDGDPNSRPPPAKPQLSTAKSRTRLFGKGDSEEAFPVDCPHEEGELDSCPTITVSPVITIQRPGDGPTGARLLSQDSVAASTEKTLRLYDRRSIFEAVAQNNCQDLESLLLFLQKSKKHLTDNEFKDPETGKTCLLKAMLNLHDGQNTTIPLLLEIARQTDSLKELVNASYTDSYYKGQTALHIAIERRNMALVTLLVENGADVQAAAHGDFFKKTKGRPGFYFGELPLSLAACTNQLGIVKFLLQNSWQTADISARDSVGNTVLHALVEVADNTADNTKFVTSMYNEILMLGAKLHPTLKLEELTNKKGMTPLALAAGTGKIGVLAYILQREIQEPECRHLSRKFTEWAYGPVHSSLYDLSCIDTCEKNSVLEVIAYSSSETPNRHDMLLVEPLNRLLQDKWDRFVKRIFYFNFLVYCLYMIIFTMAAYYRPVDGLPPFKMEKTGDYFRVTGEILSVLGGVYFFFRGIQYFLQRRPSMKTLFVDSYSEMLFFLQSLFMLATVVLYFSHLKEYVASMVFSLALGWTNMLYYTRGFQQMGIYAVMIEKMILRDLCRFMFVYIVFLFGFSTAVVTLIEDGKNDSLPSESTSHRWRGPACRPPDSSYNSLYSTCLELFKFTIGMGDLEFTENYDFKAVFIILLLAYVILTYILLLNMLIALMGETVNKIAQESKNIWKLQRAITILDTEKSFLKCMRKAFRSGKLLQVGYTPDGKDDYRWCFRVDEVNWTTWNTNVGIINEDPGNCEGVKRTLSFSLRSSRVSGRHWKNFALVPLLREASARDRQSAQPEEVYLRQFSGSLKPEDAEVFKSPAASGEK

| SMILES | inhibition at 1 µM [%] | IC50 [nM] |
| --- | --- | --- |
| O=C(Nc1cccc2c[n+]([O-])ccc12)NC1CC2(CCC2)Oc2ccccc21 (single isomer, unassigned; (+)) [Example 10, (+) 1-(3,4-Dihydro-spiro[2H-1-benzopyran-2,1′-cyclobutane]-4-yl)-3-(2-oxoisoquinolin-5-yl)urea] | > 50 | 104 |
| Cc1ccc2c(c1)C(NC(=O)Nc1cccc3cnccc13)CC1(CCC1)O2 (racemic) [Example 40, (±)-1-(3,4-Dihydro-6-methyl-spiro[2H-1-benzopyran-2,1′-cyclobutane]-4-yl)-3-(isoquinolin-5-yl)urea] | > 50 | 123 |
| O=C(Nc1cccc2cnccc12)NC1CC2(CCC2)Oc2ccccc21 (single isomer, unassigned; (+)) [Example 4, (+) 1-(3,4-Dihydro-spiro-[2H-1-benzopyran-2,1′-cyclobutan]-4-yl)-3-(isoquinolin-5-yl)urea] | > 50 | 7.8 |
| O=C(NCc1ccccn1)NC1CC2(CCC2)Oc2ccccc21 (racemic) [Example 32, (±) 1-(3,4-Dihydro-spiro[2H-1-benzopyran-2,1′-cyclobutane]-4-yl)-3-(pyridin-2-ylmethyl)urea] | < 50 | – |
| CN1CCC2(CC1)CC(NC(=O)Nc1cccc3cnccc13)c1ccccc1O2 (racemic) [Example 1, (±) 1-{3,4-Dihydro-1′-(methyl)spiro-[2H-1-benzopyran-2,4′-piperidine]-4-yl}-3-(isoquinoline-5-yl)urea] | 142 | – |
| CNS(=O)(=O)c1ccc2c(c1)C(NC(=O)Nc1cccc3cnccc13)CC1(CCC1)O2 (racemic) [Example 55, (±) 1-(3,4-Dihydro-6-methylaminosulfonyl-spiro[2H-1-benzopyran-2,1′-cyclobutane]-4-yl)-3-(isoquinolin-5-yl)urea] | < 50 | – |

The next lines start with the values.

| inhibition at 1 µM [%] | IC50 [nM] | SMILES |
| --- | --- | --- |
| > 50 | 29.9 | O=C(Nc1cccc2cnccc12)NC1CC2(CCC2)Oc2c(Cl)cccc21 (racemic) [Example 49, (±) 1-(8-Chloro-3,4-dihydro-spiro[2H-1-benzopyran-2,1′-cyclobutane]-4-yl)-3-(isoquinolin-5-yl)urea] |
| > 50 | 0.48 | Cc1ccc2c(c1)OC1(CCC1)CC2NC(=O)Nc1cccc2cnccc12 (racemic) [Example 41, (±) 1-(3,4-Dihydro-7-methyl-spiro[2H-1-benzopyran-2,1′-cyclobutane]-4-yl-3-(isoquinolin-5-yl)urea] |
| 46.9 | – | O=C(Nc1cccc2ccncc12)NC1CC2(CCC2)Oc2ccccc21 (racemic) [Example 27, (±) 1-(3,4-Dihydrospiro[2H-1-benzopyran-2,1′-cyclobutan]-4-yl)-3-(isoquinolin-8-yl)urea] |
| > 50 | 5.2 | O=C(Nc1cccc2cnccc12)NC1CC2(CCC2)Sc2ccccc21 (racemic) [Example 81, (±) 1-(3,4-dihydro-spiro[2H-1-benzothiopyran-2,1′-cyclobutan]-4-yl)-3-(isoquinolin-5-yl)urea] |
| > 50 | 147 | Cn1ncc2cc(NC(=O)NC3CC4(CCC4)Oc4ccccc43)ccc21 (racemic) [Example 13, (±) 1-(3,4-Dihydro-spiro[2H-1-benzopyran-2,1′-cyclobutane]-4-yl)-3-(1-methyl-1H-indazol-5-yl)urea] |
| < 50 | – | Nc1ccc2c(c1)C(NC(=O)Nc1cccc3cnccc13)CC1(CCC1)O2 (racemic) [Example 79, (±) 1-(6-Amino-3,4-dihydro-spiro[2H-1-benzopyran-2,1′-cyclobutane]-4-yl)-3-(isoquinolin-5-yl)urea] |
| < 50 | – | O=C(Nc1nnc(-c2ccc([N+](=O)[O-])cc2)s1)NC1CC2(CCC2)Oc2ccccc21 (racemic) [Example 24, (±) 1-(3,4-Dihydro-spiro[2H-1-benzopyran-2,1′-cyclobutane]-4-yl)-3-(5-(4-nitrophenyl)-1,3,4-thiadiazol-2-yl)urea] |
